Read-outs that look alike come from different tables or passages of the source.
Assays:
P. falciparum 3D7 [1] = system: P. falciparum 3D7; design: method as in ChEMBL-NTD; settings: ref ChEMBL-NTD, cited from earlier work
P. falciparum 3D7 [2] = assay: DAPI stain fluorescent high content imaging assay, P. falciparum 3D7 (confirmatory screen, Avery); settings: Plasmodium falciparum; for EC50: 3D7, read-out: EC50_nM; for inhibition of growth at 5 µM: 3D7, read-out: percent_inh @ 5 uM; for inhibition of growth at 2 µM: 3D7, read-out: percent_inh @ 2 uM
[3] = original screening data, source (GSK, GNF, StJude), several values separated by ';' in order of sources
[4] = values follow the order of the source (GNF; GSK; StJude)

EC50 (P. falciparum 3D7 [2]) [nM]	Compound	inhibition of growth at 5 µM (P. falciparum 3D7 [2]) [%]	also measured
693	Cc1cc(NC(=O)c2ccc(-c3ccccc3)cc2)no1 [MMV018984]	95	EC50 (P. falciparum 3D7 [1]; [3]): 1020 nM
635	Cc1ccc(CSCc2ccc(C(=O)NC3CC3)o2)cc1 [MMV007571]	97	EC50 (P. falciparum 3D7 [1]; source GNF): 418 nM
–	CCOc1ccc(-c2nc(NC(=O)c3cccc(S(C)(=O)=O)c3)sc2C)cc1 [MMV665913]	95	EC50 (P. falciparum 3D7 [1]; source StJude): 15000 nM
512	CCOc1c(Br)cc(C2C(C(=O)OC)=CN(C)C=C2C(=O)OC)cc1OC [MMV006764]	96	EC50 (P. falciparum 3D7 [1]; source GNF (GNF-Pf ids)): 292 nM
–	O=C(Nc1ccsc1C(=O)NC1CCCCC1)c1ccc(F)cc1 [MMV665939]	86	EC50 (P. falciparum 3D7 [1]; source GSK): 1210 nM
947	Cc1ccc(Cn2c(N3CCC(C(=O)NCc4cccs4)CC3)nc3ccccc32)cc1 [MMV007564]	73	EC50 (P. falciparum 3D7 [1]; source GNF): 529 nM; EC50 (P. falciparum 3D7 [1]; source GSK): 748 nM
539	Cc1ccc(F)cc1NC(=O)c1cc(Cl)ccc1Nc1ccccc1 [MMV007275]	99	EC50 (P. falciparum 3D7 [1]; source GNF (GNF-Pf ids)): 191 nM
1110	COc1ccc(N2CCN(C(CNC(=O)C3CCCCC3)c3ccc4c(c3)OCO4)CC2)cc1 (stereo not drawn) [MMV019662]	97	EC50 (P. falciparum 3D7 [1]; source GSK): 566 nM
489	CCOC(=O)C1=C(C)N=c2sc(=Cc3cc(Cl)ccc3O)c(=O)n2C1c1ccc(OC)cc1 (stereo not drawn) [MMV665971]	97	EC50 (P. falciparum 3D7 [1]; source GSK (TCMDC ids)): 746 nM; EC50 (P. falciparum 3D7 [1]; source StJude (SJ ids)): 15000 nM
1080	O=C(Nc1ccc(N2CCN(Cc3ccccc3)CC2)cc1)c1cccs1 [MMV019670]	59	EC50 (P. falciparum 3D7 [1]; [3]): 769 nM
–	CN(C)c1ccc(-c2nc3cc(N)ccc3[nH]2)cc1 [MMV666102]	64	EC50 (P. falciparum 3D7 [1]; source GSK): 239 nM
516	COc1ccc(C(=O)Nc2nonc2-c2ccc(OC)c(OC)c2)cc1Cl [MMV011567]	92	EC50 (P. falciparum 3D7 [1]; source GNF): 1780 nM; EC50 (P. falciparum 3D7 [1]; source GSK): 675 nM
–	O=C(CSc1ccc2nnc(-c3cccc(F)c3)n2n1)Nc1ccc2c(c1)OCO2 [MMV665918]	92	EC50 (P. falciparum 3D7 [1]; source GNF): 2110 nM
–	CC(C)(C)c1ccc(C(=O)Nc2nc3ccccc3s2)cc1 [MMV142383]	81	EC50 (P. falciparum 3D7 [1]; source StJude): 15000 nM
776	c1ccc(CNc2nc(Nc3ccccc3)nc3ccccc23)cc1 [MMV006169]	–	EC50 (P. falciparum 3D7 [1]; [4]): 158 nM; inhibition of growth at 2 µM (P. falciparum 3D7 [2]): 95%
756	CC1CC(C)CN(C(=O)c2ccc(Cl)cc2Cl)C1 (stereo not drawn) [MMV001344]	95	EC50 (P. falciparum 3D7 [1]; [3]): 1320 nM
707	CCN(CC)CCNc1ncnc2c1[nH]c1ccc(Br)cc12 [MMV006545]	–	EC50 (P. falciparum 3D7 [1]; [3]): 288 nM
1120	Cc1ccccc1OCCSc1nc2ccc(NC(=O)c3ccccc3)cc2s1 [MMV007577]	93	EC50 (P. falciparum 3D7 [1]; source GNF (GNF-Pf ids)): 9760 nM
640	CCC(O)c1ccc(Br)cc1NC(=O)c1cccc(Cl)c1 (stereo not drawn) [MMV020654]	97	EC50 (P. falciparum 3D7 [1]; [3]): 1020 nM

EC50 (P. falciparum 3D7 [2]) [nM]	Compound	inhibition of growth at 5 µM (P. falciparum 3D7 [2]) [%]	also measured
350	O=C(O)C1Cc2c([nH]c3ccccc23)C(c2ccc(Cl)cc2Cl)N1 (stereo not drawn) [MMV008138]	–	EC50 (P. falciparum 3D7 [1]; source GNF (GNF-Pf id)): 1020 nM; EC50 (P. falciparum 3D7 [1]; source GSK (TCMDC id)): 954 nM
1060	CCOc1ccc(Nc2c3ccccc3nc3ccccc23)cc1 [MMV000304]	97	EC50 (P. falciparum 3D7 [1]; source StJude (SJ ids)): 5720 nM
1040	COc1cc2c(cc1OC)C1=NNC(=O)C1=NC(C)(C)C2 [MMV084940]	–	EC50 (P. falciparum 3D7 [1]; [3]): 1580 nM
1060	COc1ccc(C(=O)C2CC2c2ccc(Cl)cc2)cc1 (stereo not drawn) [MMV665924]	94	EC50 (P. falciparum 3D7 [1]; source GNF (GNF-Pf ids)): 217 nM
119	CCOC(=O)c1cn(CC)c2cc(N3CCCCC3)c(F)cc2c1=O [MMV665827]	100	EC50 (P. falciparum 3D7 [1]; source GNF (GNF-Pf id)): 166 nM; EC50 (P. falciparum 3D7 [1]; source GSK (TCMDC id)): 125 nM
–	O=C1CC(O)(C(F)(F)C(F)(F)F)Oc2ccccc21 (stereo not drawn) [MMV000972]	95	EC50 (P. falciparum 3D7 [1]; [3]): 2570 nM
–	Oc1c2c(nc3ccccc13)CCCC2 [MMV665843]	82	EC50 (P. falciparum 3D7 [1]; [3]): 628 nM
1720	O=C(NCC1Cc2cccc(-c3ccncc3)c2O1)c1csc2c1CCCC2 (stereo not drawn) [MMV665954]	87	EC50 (P. falciparum 3D7 [1]; source StJude): 8740 nM
934	COc1ccc(C2NCCc3c2[nH]c2ccccc32)cc1CN1CCN(c2ccc(F)cc2)CC1 (stereo not drawn) [MMV019690]	97	EC50 (P. falciparum 3D7 [1]; source GSK (TCMDC ids)): 776 nM
1430	COc1cc(OC)cc(N2C(=O)N(Cc3ccc(C(C)(C)C)cc3)c3ccccc3S2(=O)=O)c1 [MMV008173]	97	EC50 (P. falciparum 3D7 [1]; source GNF (GNF-Pf ids)): 3750 nM
1160	O=C(Nc1ccc(Cl)c(Cl)c1)Nc1ccc(Cl)c(Cl)c1 [MMV665852]	96	EC50 (P. falciparum 3D7 [1]; [4]): 1030 nM
161	CC(C)(C)c1ccc(O)c(CNC2CCCCC2)c1 [MMV665785]	96	EC50 (P. falciparum 3D7 [1]; source GNF (GNF-Pf id)): 250 nM; EC50 (P. falciparum 3D7 [1]; source GSK (TCMDC id)): 264 nM
373	COc1ccc(CCn2c(=N)c(C(=O)NCc3cccnc3)cc3c(=O)n4cccc(C)c4nc32)cc1 [MMV667488]	–	EC50 (P. falciparum 3D7 [1]; [4]): 1400 nM
51.5	CN(C)c1ccc(C=Cc2nc(=O)c3ccccc3o2)cc1 [MMV006309]	96	EC50 (P. falciparum 3D7 [1]; source GSK (TCMDC id)): 44.6 nM
1110	CCCn1c(=N)c(C(=O)NC2CCCCC2)cc2c(=O)n3cccc(C)c3nc21 [MMV008829]	96	EC50 (P. falciparum 3D7 [1]; source GNF): 460 nM
381	CC1=C(CC(=O)c2cccc([N+](=O)[O-])c2)C(=O)c2ccccc2C1=O [MMV666125]	95	EC50 (P. falciparum 3D7 [1]; source GNF (GNF-Pf ids)): 2840 nM
697	CC(C)OCc1cc(CN2CCN(c3cccc(Cl)c3)CC2)c(O)c2ncccc12 [MMV000788]	98	EC50 (P. falciparum 3D7 [1]; source StJude): 941 nM
1000	CCn1c(SCC(=O)Nc2cc(C(F)(F)F)ccc2Cl)nc2ccccc2c1=O [MMV666103]	91	EC50 (P. falciparum 3D7 [1]; source GSK): 397 nM
1320	CCOc1ccccc1CNC(=O)C1c2ccccc2C(=O)N(CC(C)C)C1c1cccs1 (stereo not drawn) [MMV000653]	97	EC50 (P. falciparum 3D7 [1]; source StJude): 1430 nM

EC50 (P. falciparum 3D7 [2]) [nM]	Compound	inhibition of growth at 5 µM (P. falciparum 3D7 [2]) [%]	also measured
25.5	CC1CN(C(=O)c2sc3ccccc3c2Cl)CC(C)O1 (stereo not drawn) [MMV020492]	95	EC50 (P. falciparum 3D7 [1]; source GSK (TCMDC id)): 87.9 nM
–	COc1ccc2nc(N)nc(C)c2c1 [MMV665897]	63	EC50 (P. falciparum 3D7 [1]; source GSK (TCMDC ids)): 927 nM
–	OC1CCCCC1C1(NC(=S)Nc2ccccc2)CCCCC1 (stereo not drawn) [MMV665980]	59	EC50 (P. falciparum 3D7 [1]; source GNF (GNF-Pf ids)): 211 nM
4000	CCc1ccc(Nc2cc(C)nc3nc(C)nn23)cc1 [MMV007374]	–	EC50 (P. falciparum 3D7 [1]; [3]): 574 nM; inhibition of growth at 2 µM (P. falciparum 3D7 [2]): 81%
1240	COc1ccc2c(c1OC)C(=O)N1c3ccccc3N=C(c3ccc(C)cc3)CC21 (stereo not drawn) [MMV000917]	93	EC50 (P. falciparum 3D7 [1]; source StJude (SJ ids)): 2530 nM
676	O=C(CCc1ccccc1)c1ccccc1OCC(O)CN1CCCCC1 (stereo not drawn) [MMV009015]	97	EC50 (P. falciparum 3D7 [1]; source GNF): 881 nM
–	Cc1ccc(NC(=O)Nc2cccc(Cl)c2)cc1F [MMV000911]	52	EC50 (P. falciparum 3D7 [1]; [3]): 15000 nM
1160	CC(C)=CCN1CCC(C(=O)Nc2ccc(-c3nc4ccccc4[nH]3)cc2)CC1 [MMV665946]	96	EC50 (P. falciparum 3D7 [1]; source GSK): 908 nM; EC50 (P. falciparum 3D7 [1]; source StJude): 1340 nM
735	O=C(Nc1ccc(N2CCCCC2)c(Cl)c1)c1ccc(Br)o1 [MMV019700]	96	EC50 (P. falciparum 3D7 [1]; [3]): 549 nM
154	CCOC(=O)C1=C(c2ccccc2)N=c2sc(=Cc3cc(C)n(-c4ccc(F)cc4)c3C)c(=O)n2C1c1cccc(OC)c1OC (stereo not drawn) [MMV666601]	94	EC50 (P. falciparum 3D7 [1]; source GNF (GNF-Pf id)): 2320 nM
387	CCCCCCc1cc2cc(-c3csc(C=Cc4ccccc4)n3)c(=O)oc2cc1O [MMV666692]	92	EC50 (P. falciparum 3D7 [1]; [4]): 970 nM
–	Oc1c(CN2CCN(c3ccccc3F)CC2)cc(Br)c2cccnc12 [MMV000760]	91	EC50 (P. falciparum 3D7 [1]; [3]): 3760 nM
–	COc1cccc(C(=O)Nc2ccc(-c3nc4ccccc4[nH]3)cc2)c1 [MMV019762]	83	EC50 (P. falciparum 3D7 [1]; [3]): 802 nM
4000	CN1CCN(c2c3c(c(C#N)c4nc5ccccc5n24)CCC3)CC1 [MMV008127]	–	EC50 (P. falciparum 3D7 [1]; [3]): 1180 nM; inhibition of growth at 2 µM (P. falciparum 3D7 [2]): 42%
1140	CCCCCCn1c(=N)n(CC(O)COc2cccc(C)c2)c2ccccc21 (stereo not drawn) [MMV000445]	98	EC50 (P. falciparum 3D7 [1]; source StJude (SJ ids)): 1970 nM
118	CCOC(=O)c1ccc2nc(-c3ccccc3)cc(O)c2c1 [MMV006457]	96	EC50 (P. falciparum 3D7 [1]; source GNF (GNF-Pf id)): 549 nM
–	CCN(CC)CCCNc1nc(-c2ccc(Cl)cc2)nc2ccccc12 [MMV665961]	92	EC50 (P. falciparum 3D7 [1]; source StJude): 15000 nM
1060	COc1ccc(CNC(=O)c2cc3c(=O)n4ccccc4nc3n(CCc3ccccc3)c2=N)cc1 [MMV665881]	95	EC50 (P. falciparum 3D7 [1]; [4]): 330 nM
1200	CCOc1ccc(CN2CCN(CC(O)COc3ccc(OCC(O)CN4CCN(Cc5ccc(OCC)cc5)CC4)cc3)CC2)cc1 (stereo not drawn) [MMV007092]	97	EC50 (P. falciparum 3D7 [1]; [4]): 1370 nM

Compound	EC50 (P. falciparum 3D7 [2]) [nM]	inhibition of growth at 5 µM (P. falciparum 3D7 [2]) [%]	also measured
CCCc1cc(O)c2c3c(c(=O)oc2c1)CN(C)CC3 [MMV665841]	146	97	EC50 (P. falciparum 3D7 [1]; source GNF (GNF-Pf id)): 554 nM; EC50 (P. falciparum 3D7 [1]; source GSK (TCMDC id)): 873 nM

Source: PMC3684613 (PLoS ONE, 2013)
